{
  "source": "patent US11883407B2",
  "about": "“Medicament for the treatment of chronic cough” (Shionogi & Co., Ltd., priority 2018, dated 2024)",
  "key": {"[1]": {"experiment": "Phase I repeat dose study (safety, tolerability)", "format": "in vivo, human"}, "[2]": {"tested_on": "patients with refractory/unexplained chronic cough", "experiment": "Phase II double-blind cross-over comparative study: cough frequency and Leicester Cough Questionnaire", "format": "in vivo, human", "protocol": "A Phase II double-blind cross-over comparative study was conducted in patients with refractory/unexplained chronic cough.\nIn patients with refractory/unexplained chronic cough, the placebo-adjusted change from baseline in the number of coughs per hour during daytime (7 am to 7:59 pm, which means right before 8:00 pm) after 2 weeks of administration of the compound represented by Formula (I), and its significance were evaluated. Similarly, the placebo-adjusted change from baseline in the number of coughs per hour in 24 hours after administration of the compound represented by Formula (I) and its significance were also evaluated.\nThe placebo-adjusted change is defined by the following equation.\n(§1) The trial was conducted as a placebo-controlled, multicenter, randomized, double-blind, cross-over comparative study. The study consists of a screening phase (1 to 4 weeks), a first treatment phase (15 days), a drug holiday (2 to 3 weeks), a second treatment phase (15 days) and a follow-up phase (1 week).\n(§2) Subjects (20 females, 11 males, mean age of 50.0 years) were randomly assigned to either the group receiving the compound according to Formula (I) first or the group receiving the placebo first. The subjects in the group receiving the compound according to Formula (I) first received orally tablets containing 150 mg of the compound according to Formula (I) (50 mg, 3 tablets), and the subjects in the group receiving the placebo first received orally placebo tablets (3 tablets), from the day following the first treatment phase once daily in the morning for 2 weeks.\n(For the number of coughs per hour during daytime in each of the first and second treatment phases, the mixed effect model was applied, with the common logarithms of the ratio to the baseline after 2 weeks of administration as the responses, the investigational drugs, the administration groups (group receiving the compound represented by Formula (I) first and group receiving the placebo first), and the phases as the fixed effects, the individuals as the random effects, and the common logarithms of the number of coughs per hour at baseline as the covariates.) (Results) A comparison (full analysis population) of the change in the number of coughs per hour in 24 hours is shown in Table 4.\n(For the number of coughs per hour in 24 hours in each of the first and second treatment phases, the mixed effect model was applied, with the common logarithms of the ratio to the baseline after 2 weeks of administration as the responses, the investigational drugs, administration groups (group receiving the compound represented by Formula (I) first and group receiving the placebo first), and phases as the fixed effects, the individuals as the random effects, and the common logarithms of the number of coughs per hour at baseline as the covariates.) (Results) A comparison (full analysis population) of the total change in the sum of the three domains of the Leicester Cough Questionnaire [Japanese version] is shown in Table 5.\n(For the change from baseline in the total score of the three domains of the Leicester Cough Questionnaire [Japanese version] at the end or discontinuation of each of the first and second treatment phases, the mixed effect model was applied, with the changes from the baseline as the responses, the investigational drugs, phases, and administration groups (group receiving the compound represented by Formula (I) first and group receiving the placebo first) as the fixed effects, the individuals as the random effects, and the total scores of the three domains of the Leicester Cough Questionnaire [Japanese version] at baseline as the covariates.)"}, "[3]": {"experiment": "Phase II clinical trial: treatment-related and taste-related adverse events", "format": "in vivo, human", "protocol": "as §1, §2\nNext, the incidence of taste-related adverse events and side effects observed in the Phase II clinical trial is shown in Table 6.\nHere, the incidence of taste-related adverse events in Test Example 6 was examined. In this study, the compound represented by Formula (I) and the corresponding placebo were used as the investigational drugs. As the study design, a cross-over design consisting of two treatment phases was used. Each subject was assigned to either the treatment group taking 150 mg per day of the compound represented by Formula (I) during the first treatment phase and the placebo during the second treatment phase, or the treatment group taking the placebo during the first treatment phase and 150 mg per day of the compound represented by Formula (I) during the second treatment phase. The safety analysis population in this study was 31 subjects, all of whom were taking the compound represented by Formula (I) and the placebo. Among them, dysgeusia occurred in 1 subject (1/31, 3.2%) and hypogeusia occurred in another subject (1/31, 3.2%) when taking the compound represented by Formula (I). […] Therefore, taste-related adverse events occurred in 2 subjects (2/31, 6.5%). No taste-related adverse events were observed when taking the placebo.\nBased on the above results, for the proportion of subjects who experienced any of the taste-related adverse events, the study design of each study was taken into account, and as the difference between each investigational drug and placebo, the mean of differences of incidence in the same subject between the treatments and the two-sided 95% confidence interval thereof were calculated for Test Example 6, and the difference of incidence between the Gefapixant 50 mg treatment group and the placebo treatment group and the two-sided 95% confidence interval thereof were calculated for the study MK-7264-012."}, "clinical": {"experiment": "clinical", "settings": "human, plasma, oral"}, "[4]": {"experiment": "Phase I single dose and food effect study (safety, tolerability)"}, "[5]": {"settings": "150 mg once daily, 2 weeks, from baseline, full analysis population"}, "[6]": {"settings": "150 mg once daily, 2 weeks, full analysis population"}},
  "data": [
    {"smiles": "C[C@@H](Cn1c(=O)[nH]/c(=N\\c2ccc(Oc3ccccn3)cc2)n(Cc2ccc(Cl)cc2)c1=O)C(=O)O", "note": "[compound represented by Formula (I), (2S)-3-(3-[(4-Chlorophenyl)methyl]-2,6-dioxo-4-{[4-(pyridin-2-yloxy)phenyl]amino}-3,6-dihydro-1,3,5-triazin-1(2H)-yl)-2-methyl-propanoic acid]", "values": [
      {"measurement": "dysgeusia or any taste-related disorder", "setting": "[1]; 150 and 300 mg once daily for 2 weeks", "value": "no dysgeusia or any taste-related disorder was observed"},
      {"measurement": "deaths, serious adverse events, adverse events leading to discontinuation of administration", "setting": "[1]; any administration group, healthy adult males", "value": "no deaths, serious adverse events or adverse events leading to discontinuation of administration"},
      {"measurement": "Drug differences, total score of the three domains of the Leicester Cough Questionnaire", "setting": "[2]; 150 mg once daily vs placebo", "value": 1.40},
      {"measurement": "difference between investigational drug groups in total score of the three domains of the Leicester Cough Questionnaire", "setting": "[2]; 150 mg once daily vs placebo, significant difference", "value": 1.40, "unit": "points"},
      {"measurement": "placebo-adjusted rate of decrease in the number of coughs per hour during daytime", "setting": "[2]; 150 mg once daily, 2 weeks", "value": 31.6, "unit": "%"},
      {"measurement": "Estimated amount of change, total score of the three domains of the Leicester Cough Questionnaire", "setting": "[2]; 150 mg once daily, 2 weeks, from baseline", "value": 2.46},
      {"measurement": "Estimated rate of change in number of coughs per hour during daytime", "setting": "[2]; [5]", "value": "−54.1", "unit": "%"},
      {"measurement": "Estimated rate of change in number of coughs per hour in 24 hours", "setting": "[2]; [5]", "value": "−52.6", "unit": "%"},
      {"measurement": "Rate of change adjusted by placebo, number of coughs per hour during daytime", "setting": "[2]; [6]", "value": "−31.6", "unit": "%"},
      {"measurement": "Rate of change adjusted by placebo, number of coughs per hour in 24 hours", "setting": "[2]; [6]", "value": "−30.9", "unit": "%"},
      {"measurement": "placebo-adjusted rate of decrease in the number of coughs per hour in 24 hours", "setting": "[2]; 150 mg once daily, 2 weeks, significant difference", "value": 30.9, "unit": "%"},
      {"measurement": "Any Treatment-related AEs, number of events", "setting": "[3]; 150 mg once daily, N = 31", "value": "(4)"},
      {"measurement": "Drug-induced liver injury, number of events", "setting": "[3]; 150 mg once daily, N = 31", "value": "(1)"},
      {"measurement": "Drug-induced liver injury, patients", "setting": "[3]; 150 mg once daily, N = 31", "value": "1 (3.2) n (%)"},
      {"measurement": "Dysgeusia, number of events", "setting": "[3]; 150 mg once daily, N = 31", "value": "(1)"},
      {"measurement": "Dysgeusia, patients", "setting": "[3]; 150 mg once daily, N = 31", "value": "1 (3.2) n (%)"},
      {"measurement": "Gastrointestinal disorders, number of events", "setting": "[3]; 150 mg once daily, N = 31", "value": "(1)"},
      {"measurement": "Gastrointestinal disorders, patients", "setting": "[3]; 150 mg once daily, N = 31", "value": "1 (3.2) n (%)"},
      {"measurement": "Hepatobiliary disorders, number of events", "setting": "[3]; 150 mg once daily, N = 31", "value": "(1)"},
      {"measurement": "Hepatobiliary disorders, patients", "setting": "[3]; 150 mg once daily, N = 31", "value": "1 (3.2) n (%)"},
      {"measurement": "Hypoaesthesia oral, number of events", "setting": "[3]; 150 mg once daily, N = 31", "value": "(1)"},
      {"measurement": "Hypoaesthesia oral, patients", "setting": "[3]; 150 mg once daily, N = 31", "value": "1 (3.2) n (%)"},
      {"measurement": "Hypogeusia, number of events", "setting": "[3]; 150 mg once daily, N = 31", "value": "(1)"},
      {"measurement": "Nervous system disorders, number of events", "setting": "[3]; 150 mg once daily, N = 31", "value": "(2)"},
      {"measurement": "Nervous system disorders, patients", "setting": "[3]; 150 mg once daily, N = 31", "value": "2 (6.5) n (%)"},
      {"measurement": "Patients with any Treatment-related AEs", "setting": "[3]; 150 mg once daily, N = 31", "value": "4 (12.9) n (%)"},
      {"measurement": "hypogeusia, patients", "setting": "[3]; 150 mg once daily, N = 31", "value": "1 (3.2) n (%)"},
      {"measurement": "severity of taste-related adverse events", "setting": "[3]; 150 mg per day", "value": "both were mild"},
      {"measurement": "ageusia", "setting": "[3]; 150 mg per day, 31 subjects", "value": "No ageusia was observed"},
      {"measurement": "dysgeusia (taste change), patients", "setting": "[3]; 150 mg per day, 31 subjects", "value": 3.2, "unit": "%"},
      {"measurement": "hypogeusia, patients", "setting": "[3]; 150 mg per day, 31 subjects", "value": 3.2, "unit": "%"},
      {"measurement": "number of subjects with taste-related adverse events", "setting": "[3]; 150 mg per day, 31 subjects", "value": 2, "unit": "subjects"},
      {"measurement": "taste-related adverse events, patients", "setting": "[3]; 150 mg per day, 31 subjects", "value": 6.5, "unit": "%"},
      {"measurement": "Difference of incidence of any of the taste-related adverse events (drug − placebo)", "setting": "[3]; 150 mg, mean difference between treatments in the same subject", "value": 6.5, "unit": "%"},
      {"measurement": "concentration at 24 h", "setting": "clinical; 3 mg", "value": 15.2, "unit": "ng/mL"},
      {"measurement": "concentration at 24 h", "setting": "clinical; 10 mg", "value": 50.7, "unit": "ng/mL"},
      {"measurement": "concentration at 24 h", "setting": "clinical; 30 mg", "value": 134, "unit": "ng/mL"},
      {"measurement": "concentration at 24 h", "setting": "clinical; 100 mg", "value": 424, "unit": "ng/mL"},
      {"measurement": "concentration at 24 h", "setting": "clinical; 300 mg", "value": 1840, "unit": "ng/mL"},
      {"measurement": "concentration at 24 h", "setting": "clinical; 450 mg", "value": 2680, "unit": "ng/mL"},
      {"measurement": "deaths, serious adverse events, adverse events leading to discontinuation of administration", "setting": "[4]; Part A and Part B, healthy adult males", "value": "no deaths, serious adverse events, or adverse events leading to discontinuation of administration"},
      {"measurement": "taste-related adverse events or side effects", "setting": "[4]; all Phase I studies conducted (single dose/food effect and repeat dose)", "value": "No taste-related adverse events or side effects were observed"},
      {"measurement": "dysgeusia or any taste-related disorder as adverse event", "setting": "[4]; single dose 3, 10, 30, 100, 300 and 450 mg groups", "value": "no dysgeusia or any taste-related disorder was observed"}
    ]}
  ]
}
